This note sets out measurements from PMC9293909 (Nature Communications, 2022).

Several values for one entry are separate records, joined by “and”; a condition that tells them apart may be missing. Equal values may be shown once. Read-outs that look alike come from different tables or passages of the source.

For one series, the system named is frog heart. Description: Isolated frog heart preparation, heart rate. The note with it: CPA 300 nM.
The test system of series [1] is native presynaptic A1Rs, rat hippocampal slices. Nature of the series: Extracellular fEPSP recording, inhibition of excitatory synaptic transmission in hippocampal slices. Format: cell-based. The procedure:
Rats were kept on a 12-hour light-dark cycle with slices made 90 min after entering the light cycle. […] The brain was removed, cut down the midline and the two sides of the brain stuck down to a metal base plate using cyanoacrylate glue. […] Slices were stored at 34 °C for 1–6 h in aCSF (1 mM MgCl2, 2 mM CaCl2) before use.
A slice was transferred to the recording chamber, submerged in aCSF and perfused at 4–6 ml min^−1 (32 ± 0.5 °C). The slice was placed on a grid allowing perfusion above and below the tissue and all tubing was gastight (to prevent loss of oxygen). […] Field excitatory postsynaptic potentials (fEPSPs) were evoked with either an isolated pulse stimulator model 2100 (AM Systems, WA) or ISO-Flex (AMPI, Jerusalem, Israel). For fEPSPs a 10–20 min baseline was recorded at a stimulus intensity that gave 40-50% of the maximal response. […] For fEPSP slope, a 1 ms linear region after the fibre volley was measured. Extracellular recordings were made independently on two electrophysiology rigs.
(§1) Statistical significance was tested as indicated in the text using paired or unpaired two-tailed t-tests or one-way or two-way ANOVAs with repeated measures (RM) as appropriate. Bonferroni corrections for multiple comparisons were performed. All in vitro cell signalling assay data was analysed using Prism 8.4 (Graphpad software, San Diego, CA), with all concentration-response curves being fitted using a 3 parameter logistic equation to calculate response range and IC50. All cAMP data was normalised to a forskolin concentration-response curve ran in parallel to each assay.

The test system of series [2] is heart rate and mean arterial blood pressure. Description: Urethane-anaesthetised rat, heart rate and arterial blood pressure.
Description: Anaesthesia was induced in adult male Sprague–Dawley rats (230-330 g) with isofluorane (2–4%; Piramal Healthcare). The femoral vein was catheterised for drug delivery. Anaesthesia was maintained with urethane (1.2–1.7 g kg^−1; Sigma) in sterile saline delivered via the femoral vein catheter. […] The trachea was cannulated and the femoral artery catheterised, and both were connected to pressure transducers (Digitimer) to record respiratory airflow and arterial blood pressure, respectively. Blood pressure and airflow signals were amplified using the NeuroLog system (Digitimer) connected to a micro1401 interface and acquired on a computer using Spike2 software (v7.08a; Cambridge Electronic Design). […] Airflow measurements were used to calculate: tidal volume (VT; mL; pressure sensors were calibrated with a 3 mL syringe), and respiratory frequency (f; breaths min^−1; BrPM). Minute ventilation (VE; mL min^−1) was calculated as f × VT.
Cardiovascular and respiratory parameters were allowed to stabilise before experiments began. A1R agonists were administered by intravenous (IV) injection and the changes in HR, MAP, f, VT, and VE were measured. […] All injections were administered IV as a 350 µl·kg^-1 bolus.
In the next series the target is T1, hA1R:Goa (Homo sapiens, UniProt P30542).
T1 construct: host or cells: CHO-K1-hA1R (made in-house), PTX-treated
T1 sequence (P30542 1-326): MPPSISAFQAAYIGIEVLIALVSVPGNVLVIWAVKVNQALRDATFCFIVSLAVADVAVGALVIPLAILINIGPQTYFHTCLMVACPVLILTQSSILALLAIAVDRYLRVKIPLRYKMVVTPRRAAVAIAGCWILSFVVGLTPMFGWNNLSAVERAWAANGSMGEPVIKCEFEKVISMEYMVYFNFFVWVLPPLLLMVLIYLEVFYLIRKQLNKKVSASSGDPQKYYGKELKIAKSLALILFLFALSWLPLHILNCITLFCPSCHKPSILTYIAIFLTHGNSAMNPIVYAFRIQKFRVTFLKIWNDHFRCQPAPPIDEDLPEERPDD
Description: cAMP inhibition in PTX-treated CHO-K1-hA1R cells with PTX-insensitive Goa (incl. Schild analysis, bias). Format: cell-based. The note with it: for Emax: inhibition of forskolin-stimulated cAMP; for Bias factor (Δ(τ/KA)) Goa: relative to adenosine, operational model. The protocol: Cells were then incubated for 24 h before addition of 100 ng/ml PTX, to inhibit activity of endogenous Gαi/o, and then incubated for a further 16-18 h. Transfected cells were then assayed as per cAMP inhibition experiments, but co-stimulated with agonist and 100 nM forskolin.
as §1

A further series concerns the target hA1R:Gob (Homo sapiens, UniProt P30542). Nature of the series: cAMP inhibition in PTX-treated CHO-K1-hA1R cells with PTX-insensitive Gob. The note with it: for cAMP accumulation, PTX-insensitive Gob (Fig. 2b): forskolin co-stimulation, individual repeats and mean; for Emax: read-out: Emax Gob; for Bias factor (Δ(τ/KA)) Gob: relative to adenosine, operational model. For orientation: Cyclic AMP is a second messenger, typically raised through Gs and lowered through Gi signalling.

The target in series [3] is T2, hA1R Q293^8.48 alanine mutant (Homo sapiens, UniProt P30542, Q293A).
T2 construct: expressed in transfected cells
T2 sequence (P30542 whole entry Q293A): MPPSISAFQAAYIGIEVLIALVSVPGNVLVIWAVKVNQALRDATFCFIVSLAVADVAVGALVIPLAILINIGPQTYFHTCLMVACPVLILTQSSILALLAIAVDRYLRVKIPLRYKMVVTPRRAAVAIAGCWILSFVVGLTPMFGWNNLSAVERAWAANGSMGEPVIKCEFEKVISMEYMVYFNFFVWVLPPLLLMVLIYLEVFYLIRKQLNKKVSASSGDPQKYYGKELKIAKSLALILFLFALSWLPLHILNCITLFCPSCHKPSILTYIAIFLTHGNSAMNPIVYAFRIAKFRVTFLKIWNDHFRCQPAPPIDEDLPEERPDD
Nature of the series: cAMP inhibition, Flp-In-CHO hA1R Q293A. Format: cell-based. Particulars: Fig4j. The source says: Cell lines were maintained using standard subculturing routines as guided by the European Collection of Cell Culture (ECACC) and checked annually for mycoplasma infection using an EZ-PCR mycoplasma test kit from Biological Industries (Kibbutz Beit-Haemek, Israel). To investigate the signalling properties of the rat A3R (rA3R) and mutants of the human A1R (hA1R), stable cell lines were generated using Flp-In-CHO cells (ThermoFisher - R75807). Untagged hA1R from sigNanoLuciferase (Nluc)-A1R in pcDNA3.1+ and untagged rA3R from sigNluc-A3R in pcDNA3.1 + (both gifted by Dr Steve Briddon (University of Nottingham)) were cloned into the pcDNA5/FRT expression vector (Thermo Fisher Scientific). Mutations within the hA1R were made using the QuikChange Lightening Site-Directed Mutagenesis Kit (Agilent Technologies) in accordance with the manufacturer’s instructions. Constructs for generating Goa/b interfering and scrambled peptides were generated by PCR and cloned into the BamHI/HindIII site of pcDNA3.1- as described in Gilchrist et al.[60],. Prior to the initiator codon a Kozak sequence was included for enhanced translation. The peptide sequences used were: for Goa […], for Gob […], and for the scrambled peptide […] was used. Constructs were sequenced to confirm fidelity. […]

Setting [4] is: Fig6g, average, n 4, CPA alone or CPA + BnOCPA.
[5] abbreviates: Fig6g, individual animal, CPA alone or CPA + BnOCPA.

Sequence of hA1R:Gob (P09471 2-354 isoform P09471-2 C351I partner limits assumed, one chain of several): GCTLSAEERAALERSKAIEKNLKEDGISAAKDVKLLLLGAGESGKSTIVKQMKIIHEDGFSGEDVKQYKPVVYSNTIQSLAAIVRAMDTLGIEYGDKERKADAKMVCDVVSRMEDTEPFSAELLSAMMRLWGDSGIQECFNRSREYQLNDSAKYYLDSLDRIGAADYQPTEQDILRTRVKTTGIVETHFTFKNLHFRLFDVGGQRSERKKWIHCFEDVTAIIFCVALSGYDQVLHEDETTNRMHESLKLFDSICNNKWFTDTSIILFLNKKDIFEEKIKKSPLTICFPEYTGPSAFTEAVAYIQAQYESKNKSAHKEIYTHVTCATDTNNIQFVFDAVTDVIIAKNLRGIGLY
Description for frog heart: Young adult male Xenopus leavis frogs were obtained from Portsmouth Xenopus Resource Centre. […] The animals were dissected to reveal the heart and the pericardium was carefully removed. Heart contractions were measured with a force transducer (AD instruments). Heart rate was acquired via a PowerLab 26 T (AD instruments) controlled by LabChart 7 (AD instruments). The heart was regularly washed with Ringer solution and drugs were applied directly to the heart.

A word on the Emax: it is the maximal effect, on the per cent scale that the assay sets. Consider `OC[C@H]1O[C@@H](n2cnc3c(NC4CCCC4)ncnc32)[C@H](O)[C@@H]1O` [CPA, N^6-Cyclopentyladenosine], for which the “reduction of heart rate” value in the series with frog heart turned out to be 6.1 ± 0.1 BPM. In series [1] (Rattus norvegicus, 0.1 uM, individual slices and average, read-out: inhibition of synaptic transmission (fEPSP), concentration-response data (Fig. 1f, g)), the inhibition at 0.1 µM turned out to be 104%. In addition, the IC50 in series [1] (fEPSP, rat hippocampal slices, read-out: IC50 inhibition of synaptic transmission) stood at 11.8 ± 2.7 nM. In addition, the “reduction of HR” value in series [2] (CPA 6 µg kg^−1 IV) is ~ 50%. The MAP after injection in series [2] (CPA 6 µg kg^−1 IV, from 83 ± 8 mm Hg) came out at 51 ± 5 mm Hg. In series [2] (CPA 6 µg kg^−1 IV, from 408 ± 17 BPM), the HR after injection turned out to be 207 ± 29 BPM. Besides, the “effect on HR (difference from previous baseline)” value in series [2] (CPA 6 µg kg^−1 alone) is recorded as 179 ± 15 bpm. Moreover, in series [2] (Fig5c, individual rat), the heart rate was 165 and 289 and 168 and 205. Also, the “heart rate, Average” value in series [2] (Fig5c, n 4) amounted to 207. Besides, the “HR, Average” value in series [2] (setting [4]) is reported as -179. Further, in series [2] (setting [4]), the “MAP, Average” value was -55. In series [2] (setting [5]), the HR was -182.8 and -157 and -220 and -158. In series [2] (setting [5]), the MAP was -64 and -74 and -31 and -50. In series [2] (Fig5d, individual rat), the “mean arterial blood pressure” value was 49 and 64 and 40. For the same compound, in series [2] (Fig5d, n 4), the “mean arterial blood pressure, Average” value was 51. In addition, the Emax was -13.7% on hA1R:Goa and -31.8% on hA1R:Gob. The “Bias factor (Δ(τ/KA)) Goa” value on hA1R:Goa is given as 0.6126. The “cAMP accumulation, PTX-insensitive Gob (Fig. 2b)” value on hA1R:Gob (Log[Agonist] -6) is -30.7 and -34.041 and -25.068 and -30.1931 and -28.2815 and -42.9468 and -23.6463; at hA1R:Gob (Log[Agonist] -6.5), -29.1 and -23.2817 and -30.2927 and -27.2185 and -29.2939 and -35.2937 and -29.3947; on hA1R:Gob (Log[Agonist] -7), -11.3 and -6.131 and -4.497 and -15.3895 and -20.4135 and -9.305; at hA1R:Gob (Log[Agonist] -7.5) it was -3.4 and 0.1928 and -6.183 and -4.138 and -8.294 and -3.294; on hA1R:Gob (Log[Agonist] -8), 0.0 and 0 (6×); at hA1R:Gob (Log[Agonist] -8.5) it was 0.0 and 0 (6×). Moreover, the “cAMP accumulation, PTX-insensitive Gob (Fig. 2b)” value on hA1R:Gob (Log[Agonist] -9) was 0 (6×) and 0.0; at hA1R:Gob (Log[Agonist] -10) it was 0 (6×) and 0.0. Also, at hA1R:Gob, the “Bias factor (Δ(τ/KA)) Gob” value was 2.263.

The EC50 is the midpoint of the concentration-response curve. Low values mean an effect from little substance, high ones a need for much substance. `OC[C@H]1O[C@@H](n2cnc3c(N[C@@H]4CCC[C@H]4O)ncnc32)[C@H](O)[C@@H]1O` [HOCPA, (2 R,3 R,4 S,5 R)−2-(6-{[(1 R,2 R)−2-hydroxycyclopentyl]amino}−9H-purin-9-yl)−5-(hydroxymethyl)oxolane-3,4-diol]: the “reduction in fEPSP slope” value in series [1] (single experiment, reversed by 8CPT 4 µM) is reported as ~ 80%. Further, at hA1R:Goa, the midpoint of the response, the EC50, lay at 339 nM; the Emax is -29.8%; the “Bias factor (Δ(τ/KA)) Goa” value stood at 3.228. In addition, the IC50 in series [3] (individual replicate, read-out: cAMP inhibition potency, 293A (converted)) was 3.61 nM and 7.23 nM and 5 nM and 4.17 nM and 2.86 nM and 3.71 nM. Moreover, the IC50 in series [3] (read-out: cAMP inhibition potency, 293A, Average (converted)) was 4.27 nM. Also, on hA1R:Gob, the EC50 is 603 nM, the Emax was -35.5% and the “Bias factor (Δ(τ/KA)) Gob” value is recorded as 11.4176.
